Data set [1] has as its system solubilized and wheat germ column purified plasma membrane preparations. Briefly: binding to solubilized and wheat germ column purified plasma membrane preparations. On the set-up: species or system S. cerevisiae. The settings on record: wheat germ column purified membranes, comparable conditions.
For data set [2], the target named is isolated plasma membranes (high affinity binding sites for insulin and IGF-I). The data set can be described thus: binding assays with isolated plasma membranes. Also on record: species or system S. cerevisiae.
Another data set concerns intact yeast cells. The data set can be described thus: porcine 125I-insulin binding and displacement, intact yeast cells. On the set-up: species or system S. cerevisiae. The method, then: Insulin binding studies with intact logarithmic and stationary phase yeast cells were performed under typical conditions for mammalian cells (25,26). In logarithmic phase yeast, porcine ^125 I-insulin binding had reached apparent equilibrium by 1-2 h and represented ca. 0.5% of the total counts specifically bound (FIG. 2a). At this time, greater than 95% of the labelled insulin appeared to be intact, as judged by TCA precipitable counts. Unlabelled porcine insulin displaced labelled insulin from intact yeast cells in a dose dependent fashion with 50% bound occurring around 10^-9 M (FIG. 2b). This value is in good agreement with the value obtained for displacement of insulin from mammalian cells.

Data set [3] deals with cell wall-less strain of Neurospora. The settings on record: added to nutritionally rich, chemically defined culture medium; cited from earlier work.
Data set [4] deals with T1, membrane-associated adenylate cyclase from Neurospora crassa (Neurospora crassa, UniProt Q01631).
T1 construct: host or cells: Neurospora crassa membranes
The settings on record: insulin at low doses (10^-9 M); cited from earlier work.

The next data set relates to Tetrahymena pyriformis. The settings on record: cited from earlier work.
Data set [5] relates to cell wall-less strain of Neurospora. The settings on record: cited from earlier work.
Data set [6] deals with insulin receptor-like protein in yeast. The data set can be described thus: autophosphorylation of insulin receptor-like protein in yeast. In kind it is cell-based.
Data set [7] relates to stationary phase cells (yeast). The data set can be described thus: stimulation of glycogen synthesis in yeast (14C-glucose incorporation). The settings on record: binding to insulin-related receptor on yeast cell, under proper conditions. Format: cell-based. How it is done:
To assay the effect of ScILP on glycogen synthesis, stationary phase cells are preincubated in phosphate buffer with various doses of ScILP (or a variant thereof). After 30 min of incubation in the presence of 1% glucose and uniformly labelled ^14 C-glucose, the cells are pelleted, resuspended in sodium carbonate, neutralized with HCl and treated with α-amylase to release the glucose incorporated into the newly synthesized glycogen. The enzymatically released glucose is collected and quantitated by scintillation counting.

As usually defined, the Kd is the concentration at which binding is half-saturated. Lower therefore signals higher affinity.

T1 sequence (Q01631 whole entry): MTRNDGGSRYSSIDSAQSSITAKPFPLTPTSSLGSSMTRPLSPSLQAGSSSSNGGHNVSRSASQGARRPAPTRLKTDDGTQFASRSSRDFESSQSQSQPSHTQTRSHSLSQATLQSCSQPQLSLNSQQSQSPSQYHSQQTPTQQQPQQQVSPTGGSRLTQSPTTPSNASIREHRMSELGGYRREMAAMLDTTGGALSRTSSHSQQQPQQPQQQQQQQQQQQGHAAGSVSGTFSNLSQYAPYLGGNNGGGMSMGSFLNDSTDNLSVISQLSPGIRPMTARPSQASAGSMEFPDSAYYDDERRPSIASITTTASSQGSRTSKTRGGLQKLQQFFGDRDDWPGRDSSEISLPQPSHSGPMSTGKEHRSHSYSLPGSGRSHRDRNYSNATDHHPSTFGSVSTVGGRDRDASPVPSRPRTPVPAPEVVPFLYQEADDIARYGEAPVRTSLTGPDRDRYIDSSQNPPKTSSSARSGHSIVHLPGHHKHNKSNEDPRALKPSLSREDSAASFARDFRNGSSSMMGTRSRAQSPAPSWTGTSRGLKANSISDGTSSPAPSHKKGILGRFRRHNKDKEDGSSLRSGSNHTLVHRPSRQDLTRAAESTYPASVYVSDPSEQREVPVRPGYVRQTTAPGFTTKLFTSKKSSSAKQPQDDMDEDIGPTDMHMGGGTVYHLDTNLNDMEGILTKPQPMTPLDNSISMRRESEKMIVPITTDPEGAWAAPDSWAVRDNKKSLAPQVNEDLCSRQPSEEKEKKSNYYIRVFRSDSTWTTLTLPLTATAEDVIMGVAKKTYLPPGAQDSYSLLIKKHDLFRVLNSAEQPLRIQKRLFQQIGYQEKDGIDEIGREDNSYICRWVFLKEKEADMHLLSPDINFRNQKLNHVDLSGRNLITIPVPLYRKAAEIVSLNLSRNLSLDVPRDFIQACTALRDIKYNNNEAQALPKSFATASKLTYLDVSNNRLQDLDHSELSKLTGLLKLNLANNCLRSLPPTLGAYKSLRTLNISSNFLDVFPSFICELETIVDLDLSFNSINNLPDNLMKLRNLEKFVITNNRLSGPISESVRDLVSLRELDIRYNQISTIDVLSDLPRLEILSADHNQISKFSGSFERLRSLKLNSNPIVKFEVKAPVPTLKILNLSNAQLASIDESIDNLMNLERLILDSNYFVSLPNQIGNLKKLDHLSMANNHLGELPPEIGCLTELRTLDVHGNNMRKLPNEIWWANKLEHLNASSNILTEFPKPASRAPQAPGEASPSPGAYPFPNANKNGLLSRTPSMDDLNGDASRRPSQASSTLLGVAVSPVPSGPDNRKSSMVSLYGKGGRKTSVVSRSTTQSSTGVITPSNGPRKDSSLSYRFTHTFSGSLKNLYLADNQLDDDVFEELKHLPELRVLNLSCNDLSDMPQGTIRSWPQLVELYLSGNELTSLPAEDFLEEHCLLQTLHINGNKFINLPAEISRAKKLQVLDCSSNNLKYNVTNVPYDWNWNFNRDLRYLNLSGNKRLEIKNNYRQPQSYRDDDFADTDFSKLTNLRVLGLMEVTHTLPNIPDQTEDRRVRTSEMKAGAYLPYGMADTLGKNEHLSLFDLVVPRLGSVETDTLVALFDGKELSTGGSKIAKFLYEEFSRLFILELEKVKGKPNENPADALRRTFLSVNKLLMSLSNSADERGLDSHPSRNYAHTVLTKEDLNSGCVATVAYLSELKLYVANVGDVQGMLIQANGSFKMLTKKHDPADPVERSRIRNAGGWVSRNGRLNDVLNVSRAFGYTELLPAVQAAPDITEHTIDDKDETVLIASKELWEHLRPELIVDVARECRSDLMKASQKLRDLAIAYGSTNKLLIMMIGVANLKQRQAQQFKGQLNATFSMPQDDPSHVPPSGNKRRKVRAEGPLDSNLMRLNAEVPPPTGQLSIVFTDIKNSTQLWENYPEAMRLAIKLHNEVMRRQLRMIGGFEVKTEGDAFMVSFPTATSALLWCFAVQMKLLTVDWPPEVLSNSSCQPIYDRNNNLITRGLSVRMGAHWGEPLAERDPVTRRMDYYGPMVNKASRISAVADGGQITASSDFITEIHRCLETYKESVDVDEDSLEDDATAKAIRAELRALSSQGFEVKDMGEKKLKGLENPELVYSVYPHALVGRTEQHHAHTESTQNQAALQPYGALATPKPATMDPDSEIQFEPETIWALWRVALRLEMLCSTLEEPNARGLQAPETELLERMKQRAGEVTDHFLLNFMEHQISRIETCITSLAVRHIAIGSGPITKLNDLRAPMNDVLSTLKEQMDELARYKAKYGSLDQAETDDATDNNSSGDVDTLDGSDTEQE

insulin: in data set [1], the “specific binding (of 4-5% total binding)” value is listed as 1-2%. In data set [2], this substance displayed a Kd of 700 pM.

Take porcine insulin: the “labelled insulin intact, judged by TCA precipitable counts” value in the data set with intact yeast cells (at apparent equilibrium of binding (1-2 h)) is given as “greater than 95%”. Also, the IC50 in the data set with intact yeast cells (intact yeast cells, dose dependent displacement, read-out: concentration of unlabelled insulin at 50% bound (displacement of labelled insulin)) is roughly 1000 pM. The “time to apparent binding equilibrium” value in the data set on intact yeast cells (logarithmic phase yeast) was in the range of 1 to 2 h. Further, the “total counts specifically bound” value in the data set with intact yeast cells (logarithmic phase yeast, at apparent equilibrium) is listed as “ca. 0.5%”.

In the case of insulin-like growth factor (IGF-I), the “specific binding (of 4-5% total binding)” value in data set [1] is listed as 1-2%.

Take reduced insulin: the “influence on growth, morphology and viability” value in data set [3] is “inactive”.

Take glucagon: in [4], the “effect on adenylate cyclase specific activity” value is listed as “stimulated adenylate cyclase activity”.

Take bovine insulin: in the data set on Tetrahymena pyriformis, the “effect on glucose uptake” value was “small effect”. Moreover, the “effect on adenylate cyclase specific activity” value in [4] is “significantly inhibit”. In addition, the “increase of 14C-labelled glucose incorporation into glycogen” value in [5] (30 min treatment, 100 nM) is 41%. The “more glycogen than control cells” value in [5] (cells grown in presence of 100 nM insulin) is on record as 40%. Also, the “intracellular levels of UDPG-glucose by 31P-NMR” value in data set [5] is reported as “increase”.

For mammalian insulin, in data set [3], the “influence on growth, morphology and viability” value is “distinctively different morphology, enhanced growth, and extension of viability at the stationary phase in culture”. Also, the “autophosphorylation of insulin receptor-like protein on tyrosine residues” value in data set [6] was “results in its autophosphorylation on tyrosine residues”. For the same substance, the “effect on glycogen synthesis” value in data set [7] was “stimulates glycogen synthesis”.

proinsulin: the “influence on growth, morphology and viability” value in data set [3] was “inactive”.

These data come from patent US5670618A, “Insulin-like peptide” (The State University of New Jersey, priority 1995, dated 1997).
